Source: US20230365608A1 (priority 2019, published 2023)

Assays:
[1] = tested on: Influenza strains A/WSN/33 (H1N1); assay: Influenza A/WSN/33 (H1N1) antiviral assay in A549 cells (MUNANA neuraminidase readout); type: cell-based, Influenza A virus (H1N1); human lung carcinoma A549 cells; details: Influenza A virus, compound 24 h before infection, 250 IU/well, 20 h infection
Method: (§1) EC50 [uM] as Measured Using Two Cell Lines: WSN/33 (H1N1) A549 and MDCK
1. Human lung carcinoma A549 cells (ATCC, Manassas, VA) were plated at a density of 5×10^4 cells/ml (5×10^3 cells/well) in maintenance media (Ham's F12 media supplemented with 10% FBS, 1% penicillin/streptomycin, 1% HEPES, 1% Glutamine and 1% non-essential amino acids (all Mediatech, Manassas, VA) in 96-well plates. After 24 hours, serially diluted compounds in assay media (Ham's F12 supplemented with 0.3FBS, 1% penicillin/streptomycin, 1% HEPES, 1% Glutamine and 1% non-essential amino acids) were added to cells and incubated for an additional 24 hours. Cells were infected with 250 IU/well of Influenza strains A/WSN/33 (H1N1) (Virapur, San Diego CA) and incubated for 20 h at 37° C., 5% CO2. The cell culture supernatant was aspirated off and 50 μl 25 μM 2′-(4-Methylumbelliferyl)-a-D-N-acetylneuraminic acid (MUNANA, Sigma-Aldrich) dissolved in 33 mM MES, pH 6.5 (Emerald Biosystems, Bainbridge Island, WA) was added to the cells. After incubation for 45 min at 30° C., reactions were stopped by addition of 150 μL stop solution (100 mM glycine, pH 10.5, 25% ethanol, all Sigma-Aldrich). Fluorescence was measured with excitation and emission filters of 355 and 460 nm, respectively, on a Victor X3 multi-label plate reader (Perkin Elmer, Waltham, MA). Cytotoxicity of uninfected parallel cultures was determined by addition of 100 μL CellTiter-Glo® reagent (Promega, Madison, WI), and incubation for 10 min at room temperature. Luminescence was measured on a Victor X3 multi-label plate reader.

[2] = tested on: Influenza strains A/WSN/33 (H1N1); assay: Influenza A/WSN/33 (H1N1) antiviral assay in MDCK cells (MUNANA neuraminidase readout); type: cell-based; details: Influenza A virus, in Canis lupus familiaris, compound 24 h before infection, 250 IU/well, 20 h infection
Method: as §1
2. Alternatively, Madin-Darby canine kidney epithelial cells (MDCK, ATCC), were plated at a density of 7.5×10^4 cells/ml (7.5×10^3 cells/well) in maintenance media (DMEM with same supplements as above) in 96-well plates. After 24 hours, serially diluted compounds in assay media (MEM supplemented with 0.3FBS, 1% penicillin/streptomycin, 1% HEPES, 1% Glutamine and 1% non-essential amino acids) were added to cells and incubated for an additional 24 hours. Cells were infected with 250 IU/well of Influenza strains A/WSN/33 (H1N1) and incubated for 20 h at 37° C., 5% CO2. The cell culture supernatant was aspirated off and 50 μL 25 μM 2′-(4-Methylumbelliferyl)-a-D-N-acetyl neuraminic acid (MUNANA, Sigma-Aldrich) dissolved in 33 mM MES, pH 6.5 (Emerald Biosystems, Bainbridge Island, WA) was added to the cells. After incubation for 45 min at 30° C., reactions were stopped by addition of 150 μl stop solution (100 mM glycine, pH 10.5, 25% ethanol, all Sigma-Aldrich). Fluorescence was measured with excitation and emission filters of 355 and 460 nm, respectively, on a Victor X3 multi-label plate reader (Perkin Elmer, Waltham, MA). Cytotoxicity of uninfected parallel cultures was determined by addition of 100 μL CellTiter-Glo® reagent (Promega, Madison, WI), and incubation for 10 min at room temperature. Luminescence was measured on a Victor X3 multi-label plate reader.

SMILES	EC50 [1] [µM]	EC50 [2] [µM]
NC(=O)c1nsc([C@@H]2O[C@H](CO)[C@@H](O)[C@H]2O)n1 [Example 1, 5-((2R,3R,4S,5R)-3,4-Dihydroxy-5-(hydroxymethyl)tetrahydrofuran-2-yl)-1,2,4-thiadiazole-3-carboxamide]	1.35	–
NC(=O)c1cc([C@@H]2O[C@H](CO)[C@@H](O)[C@H]2O)sn1 [Example 2, 5-((2R,3R,4S,5R)-3,4-Dihydroxy-5-(hydroxymethyl)tetrahydrofuran-2-yl)isothiazole-3-carboxamide]	54.7	0.32
NC(=O)c1nc([C@@H]2O[C@H](CO)[C@@H](O)[C@H]2O)sc1F [Example 3, 2-((2R,3R,4S,5R)-3,4-Dihydroxy-5-(hydroxymethyl)tetrahydrofuran-2-yl)-5-fluorothiazole-4-carboxamide]	40.7	10.1
CC(C)C(=O)OC[C@H]1O[C@@H](c2nc(C(N)=O)ns2)[C@H](O)[C@@H]1O [Example 4, ((2R,3S,4R,5R)-5-(3-Carbamoyl-1,2,4-thiadiazol-5-yl)-3,4-dihydroxytetrahydrofuran-2-yl)methyl isobutyrate]	15.1	–
CC(C)OC(=O)OCOP(=O)(OCOC(=O)OC(C)C)OC[C@H]1O[C@@H](c2nc(C(N)=O)ns2)[C@H](O)[C@@H]1O [Example 6]	4.66	1.85
CC(C)[C@H](N)C(=O)OC[C@H]1O[C@@H](c2nc(C(N)=O)ns2)[C@H](O)[C@@H]1O [Example 7, ((2R,3S,4R,5R)-5-(3-Carbamoyl-1,2,4-thiadiazol-5-yl)-3,4-dihydroxytetrahydrofuran-2-yl)methyl valinate]	1.35	–
